This passage reports EC50 results from patent US20250034170A1, “SMALL MOLECULE MODULATORS OF GLUCOCEREBROSIDASE ACTIVITY AND USES THEREOF” (Vanqua Bio, Inc., priority 2021, published 2025).

In this experiment the target is T1, GCase (Homo sapiens, UniProt P04062).
T1 construct: endogenous in cells; host or cells: HeLa cells
T1 sequence (P04062 40-536): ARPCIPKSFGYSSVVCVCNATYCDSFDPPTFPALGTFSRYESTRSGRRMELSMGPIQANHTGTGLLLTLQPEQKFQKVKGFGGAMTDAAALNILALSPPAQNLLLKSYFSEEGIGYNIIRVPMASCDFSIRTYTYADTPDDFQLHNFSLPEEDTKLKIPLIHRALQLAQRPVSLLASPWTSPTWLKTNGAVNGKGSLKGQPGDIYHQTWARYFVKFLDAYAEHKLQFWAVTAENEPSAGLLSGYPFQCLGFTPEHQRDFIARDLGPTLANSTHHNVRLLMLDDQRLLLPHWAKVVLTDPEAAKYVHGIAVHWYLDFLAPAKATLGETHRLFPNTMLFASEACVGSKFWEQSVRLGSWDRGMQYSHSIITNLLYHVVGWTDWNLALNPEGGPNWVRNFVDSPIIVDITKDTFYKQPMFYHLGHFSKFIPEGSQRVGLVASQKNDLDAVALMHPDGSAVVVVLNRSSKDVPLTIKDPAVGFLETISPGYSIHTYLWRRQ
Put plainly: activation of GCase in a live cell PFB assay in HELA cells. Type of experiment: cell-based. The method, then:
Exemplary compounds were evaluated for activation of GCase in a live cell PFB assay in HELA cells (essentially as described in Ysselstein et al., “LRRK2 kinase activity regulates lysosomal glucocerebrosidase in neurons derived from Parkinson's disease patients” Nature Communications (2019) 10:5570). […] EC50 ranges: A: <10 μM; B: >10-50 μM; C: >50-100 μM; D: >100 μM.

The mark [1] stands for this setting: activation of GCase, EC50 ranges.

What is called EC50 is the concentration giving half of the maximal effect. As to `O=C1N(c2cc(C(F)F)ccn2)CCC12CCN(c1cnc3cnn(CC(F)(F)F)c3n1)CC2` [Compound 166, 2-[4-(difluoromethyl)pyridin-2-yl]-8-[1-(2,2,2-trifluoroethyl)-1H-pyrazolo[3,4-b]pyrazin-6-yl]-2,8-diazaspiro[4.5]decan-1-one], under setting [1], the EC50 is less than 10 µM.
Molecule `CCCn1c(N2CCC3(CCN(c4cc(C(F)(F)F)nc(C)n4)C3)CC2)nc2c(cnn2CC(F)F)c1=O` [Cmpd 1106] displayed an EC50 under setting [1] of less than 10 µM.
In the case of `O=C1CC2(CCN(c3cnc4cnn(C5COC5)c4n3)CC2)CN1c1ccnc(C(F)(F)F)c1` [Cmpd 769], the EC50 under setting [1] lay within 10 to 50 µM.
With `FC(F)Cn1ncc2ncc(N3CCC4(CN(c5cccc(OC(F)(F)F)n5)C4)C3)nc21` [Cmpd 405], the EC50 (EC50 given as range classes) is 10 to 50 µM.
Still for that read-out and setting: for `Cc1nc(N2CC3(CCN(c4cc5c(cn4)c(C)nn5CC(F)F)C3)C2)cc(C(F)(F)F)n1` [Cmpd 612] the value was 50 to 100 µM.
In turn, `FC(F)Cn1ncc2ncc(N3CCCC4(CN(c5ccc(C(F)(F)F)nc5)C4)C3)nc21` [Compound 37, 6-[1-(2,2-difluoroethyl)-1H-pyrazolo[3,4-b]pyrazin-6-yl]-2-[6-(trifluoromethyl)pyridin-3-yl]-2,6-diazaspiro[3.5]nonane] displayed an EC50 under setting [1] of 10 to 50 µM.
As for `O=S(=O)(c1cncc(C(F)(F)F)c1)N1CC2(CCN(c3cnc4cnn(CC(F)F)c4n3)C2)C1` [Cmpd 413], the EC50 (EC50 given as range classes) is less than 10 µM.
On to `Cc1nc(N2CC3(CCN(c4cnc5cnn(CC(F)F)c5c4)C3)C2)cc(C(F)(F)F)n1` [Cmpd 636], for which the EC50 under setting [1] is less than 10 µM.
Under setting [1], `O=C1N(c2cnc3cnn(CC(F)F)c3n2)CCCC12CN(c1ccc(C(F)(F)F)nc1)C2` [Cmpd 342] registered an EC50 of more than 100 µM.
Take `FC(F)Cn1ncc2ncc(N3CC4(CCN(c5ccc(C(F)(F)F)nc5)C4)C3)nc21` [Compound 183, 2-[1-(2,2-difluoroethyl)-1H-pyrazolo[3,4-b]pyrazin-6-yl]-6-[6-(trifluoromethyl)pyridin-3-yl]-2,6-diazaspiro[3.4]octane]: the EC50 (EC50 given as range classes) was 50 to 100 µM.
For `O=S(=O)(c1cccc(C(F)(F)F)c1)N1CC2(CCN(c3cnc4cnn(CC(F)F)c4n3)C2)C1` [Cmpd 374], the EC50 under setting [1] is 10 to 50 µM.
On to `Cc1cnc(CN2CC3(CCN(c4cnc5cnn(CC(F)F)c5n4)CC3)CC2=O)s1` [Cmpd 975], for which the EC50 under setting [1] fell in the range of 10 to 50 µM.
Regarding `Cc1nc(N2CCC3(C2)CN(c2ncc4cnn(C5COC5)c4n2)C3)cc(C(F)(F)F)n1` [Cmpd 557], the EC50 under setting [1] was in the range of 10 to 50 µM.
Same read-out and setting: in the case of `Cc1cc(N2CC3(CCN(c4ncc5cnn(CC(F)F)c5n4)C3)C2)nc(C(F)(F)F)n1` [Cmpd 466] it was more than 100 µM.
On the same count and under the same terms, in the case of `Cc1nc(N2CC3(CCN(c4ncc5c(n4)n(C4COC4)c(=O)n5C)C3)C2)cc(C(F)(F)F)n1` [Cmpd 899] it was less than 10 µM; in that of `CCOc1nn(CC(F)F)c2nc(N3CCC4(CC3)CC(=O)N(c3ccnc(C(F)(F)F)c3)C4)cnc12` [Cmpd 941], less than 10 µM.
Take `FC(F)(F)c1cc(N2CC3(CCN(c4cncc(-c5cncs5)n4)C3)C2)ccn1` [Cmpd 1029]: for the setting “EC50 given as range classes”, the EC50 is less than 10 µM.
On to `CCc1cnc(CN2CC3(CCN(c4cnc5cnn(CC(F)F)c5n4)CC3)CC2=O)s1` [Cmpd 976], for which the EC50 under setting [1] is less than 10 µM.
The molecule `O=C1N(c2nnc(C(F)(F)F)o2)CCC12CCN(c1cnc3cnn(CC(F)F)c3n1)CC2` [Cmpd 839] returned an EC50 under setting [1] of less than 10 µM.
For the setting “EC50 given as range classes”, `O=C1N(c2ccnc(C(F)(F)F)c2)C(=O)C2(CCN(c3cnc4cnn(CC(F)F)c4n3)CC2)N1Cc1cc(F)cc(F)c1` [Cmpd 817] had an EC50 of less than 10 µM.
The molecule `O=C1N(c2cncc(C(F)(F)F)n2)CCC12CCN(c1cnc3cnn(CC(F)F)c3n1)CC2` [Cmpd 774] showed an EC50 under setting [1] of less than 10 µM.
Turning to `O=C1N(Cc2nc(C(F)(F)F)cs2)CCC12CCN(c1cnc3cnn(CC(F)F)c3n1)CC2` [Cmpd 365], the EC50 under setting [1] is 10 to 50 µM.
Regarding `FC(F)(F)c1cc(N2CCC3(CCN(c4ncc5cnn(C6COC6)c5n4)C3)C2)ccn1` (stereo not drawn) [Cmpd 474], the EC50 under setting [1] is more than 100 µM.
Same read-out and setting: in the case of `FC(F)Cn1ncc2ncc(N3CCC4(CN(c5cc(C(F)(F)F)ccn5)CCO4)C3)nc21` (stereo not drawn) [Compound 174, 2-[1-(2,2-difluoroethyl)-1H-pyrazolo[3,4-b]pyrazin-6-yl]-9-[4-(trifluoromethyl)pyridin-2-yl]-6-oxa-2,9-diazaspiro[4.5]decane] it was 50 to 100 µM; in that of `FC(F)Cn1ncc2ncc(N3CCC4(CN(c5cncc(C(F)(F)F)n5)C4)C3)nc21` [Cmpd 298], more than 100 µM.
`Cc1nn(C2COC2)c2nc(N3CCC4(CN(c5ccnc(C(F)(F)F)c5)C4)C3)n(C)c(=O)c12` [Cmpd 995] had an EC50 (EC50 given as range classes) of less than 10 µM.
Under setting [1], `Cc1nccc(N2CCC3(CCN(c4cnc5cnn(CC(F)F)c5n4)CC3)C2)n1` [Cmpd 758] showed an EC50 of less than 10 µM.
For the molecule `Cc1cc(N2CC3(CCN(c4cnc5cnn(CC(F)F)c5n4)C3)C2)nc(C(F)F)n1` [Cmpd 1140], under setting [1], the EC50 is less than 10 µM.
`O=C1N(c2ccc(C(F)(F)F)cn2)CCC12CC1CCC(C2)N1c1cnc2cnn(CC(F)F)c2n1` (stereo not drawn) [Cmpd 798] returned an EC50 (EC50 given as range classes) of 10 to 50 µM.
With `Cc1cnc(N2CC3(CCN(c4cnc5cnn(CC(F)F)c5n4)C3)C2)cn1` [Cmpd 1039], the EC50 under setting [1] was 10 to 50 µM.
The same measure, in the same setting: for `Cc1nn(C2COC2)c2nc(N3CCC4(CCN(c5ccc(C(F)(F)F)nc5)C4)CC3)cnc12` [Cmpd 888] the value was less than 10 µM.
The molecule `Cc1ncc(N2CC3(CCN(c4cnc5cnn(CC(F)(F)F)c5n4)C3)C2)c(C(F)(F)F)n1` [Cmpd 594] registered an EC50 (EC50 given as range classes) of more than 100 µM.
In the case of `Cc1cnc(C(F)(F)F)nc1N1CC2(CCN(c3cnc4cnn(CC(F)F)c4n3)CC2)CC1=O` [Cmpd 956], the EC50 under setting [1] was more than 100 µM.
In the case of `FC(F)Cn1ncc2ncc(N3CCCC4(CCN(c5cccc(C(F)(F)F)n5)CC4)C3)nc21` [Cmpd 219], where the note is “EC50 given as range classes”, the EC50 fell in the range of 10 to 50 µM.
Under setting [1], `Fc1cc(C(F)(F)F)cnc1N1CCC2(CCN(c3cnc4cnn(CC(F)F)c4n3)CC2)C1` [Cmpd 743] came in with an EC50 of 10 to 50 µM.
Molecule `Cc1ccc(N2CC3(CCN(c4cnc5cnn(CC(F)F)c5n4)CC3)CC2=O)c(OC(F)(F)F)n1` [Cmpd 782] had an EC50 (EC50 given as range classes) of less than 10 µM.
Molecule `FC(F)Cn1ncc2ncc(N3CCC4(C3)CN(c3ccnc(C(F)(F)F)c3)C4)cc21` [Cmpd 635] registered an EC50 under setting [1] of less than 10 µM.
Under setting [1], `Cc1nc(N2CCC3(CCN(c4cnc5cnn(CC(F)F)c5n4)C3=O)C2)cc(C(F)(F)F)n1` (stereo not drawn) [Cmpd 523] gave an EC50 of less than 10 µM.
The molecule `FC(F)Cn1ncc2ncc(N3CCC4(CCC(Oc5ccncc5C(F)(F)F)C4)CC3)nc21` (stereo not drawn) [Cmpd 687] showed an EC50 under setting [1] of less than 10 µM.
Same read-out and setting: for `FC(F)Cn1ncc2cnc(N3CCC4(CN(c5ccnc(C(F)(F)F)c5)C4)C3)cc21` [Cmpd 1072] the value was 10 to 50 µM; for `Cc1cc(N2CC3(CCN(c4cnc5cnn(CC(F)F)c5n4)C3)C2)nc(C)n1` [Cmpd 639], 10 to 50 µM.
Regarding `Cc1nc(N2CCC3(C2)CN(c2cnc4c(C)nn(CC(F)F)c4n2)C3)cc(C(F)(F)F)n1` [Cmpd 578], the EC50 (EC50 given as range classes) is 10 to 50 µM.
Still for that read-out and setting: for `FC(F)Cn1ncc2ncc(N3CCC4(CN(c5cncc(Cl)c5)C4)C3)nc21` [Cmpd 401] the value was 10 to 50 µM.
`FC(F)Cn1ncc2ncc(N3CCC4(CC3)CC(Oc3cnccc3C(F)(F)F)C4)nc21` [Cmpd 707]: the EC50 under setting [1] lay within 10 to 50 µM.
`CCn1nc(C(F)(F)F)c2ncc(N3CCC4(CN(c5cc(C(F)(F)F)nc(C)n5)C4)C3)nc21` [Cmpd 1136]: under setting [1], the EC50 was less than 10 µM.
As to `COc1ccc(C(=O)N2CC3(CCN(c4cnc5cnn(CC(F)F)c5n4)C3)C2)cc1` [Cmpd 379], the EC50 (EC50 given as range classes) lay within 10 to 50 µM.
On to `CCn1c(N2CCC3(CCN(c4ccnc(C(F)(F)F)c4)C3)CC2)nc2c(cnn2CC(F)F)c1=O` [Cmpd 1099], for which the concentration giving a half-maximal response (EC50) under setting [1] was less than 10 µM.
Molecule `Cc1nc(C(F)(F)F)ncc1N1CC2(CCN(c3cnc4cnn([C@H]5CCOC5)c4n3)C2)C1` [Cmpd 656] yielded an EC50 under setting [1] of 50 to 100 µM.
In the case of `Cc1cc(C)c(N2CCC3(CCN(c4cnc5cnn(CC(F)F)c5n4)CC3)C2)nn1` [Cmpd 755], the EC50 under setting [1] is 10 to 50 µM.
Turning to `Cc1nc(N2CC3(CCN(c4ccc5c(C)nn(CC(F)F)c5n4)CC3)C2)cc(C(F)(F)F)n1` [Cmpd 624], the EC50 (EC50 given as range classes) is less than 10 µM.
On the same count and under the same terms, for `Cc1nn(C2COC2)c2nc(N3CCC4(CN(c5ccnc(C(F)(F)F)c5)C4)C3=O)cnc12` [Cmpd 1002] the value was less than 10 µM.
Under setting [1], `Cc1nc(N2CC[C@@]3(CCN(c4ncc5c(C)nn(C6COC6)c5n4)C3)C2)cc(C(F)(F)F)n1` [Cmpd 1080] showed an EC50 of 10 to 50 µM.
With `O=C1CC2(CCN(c3cnc4cnn(CC(F)F)c4n3)CC2)CN1c1ccncc1C(F)(F)F` [Cmpd 684], the EC50 under setting [1] is less than 10 µM.
In the case of `O=C1CC2(CCN(c3cccc(C(F)(F)F)n3)CC2)CN1c1cnc2cnn(CC(F)F)c2n1` [Compound 100, 2-[1-(2,2-difluoroethyl)-1H-pyrazolo[3,4-b]pyrazin-6-yl]-8-[6-(trifluoromethyl)pyridin-2-yl]-2,8-diazaspiro[4.5]decan-3-one], the 50% effective concentration (EC50) under setting [1] is 10 to 50 µM.
In the case of `O=C1N(c2nc(C(F)(F)F)co2)CCC12CCN(c1cnc3cnn(CC(F)F)c3n1)CC2` [Cmpd 838], the EC50 under setting [1] was in the range of 10 to 50 µM.
Still for that read-out and setting: for `O=C1CC2(CCN(c3cnc4cnn(CC(F)F)c4n3)CC2)CN1Cc1ccnc(OCC(F)(F)F)n1` [Cmpd 971] the value was less than 10 µM.
With `O=C1N(c2cnc3cnn(C4COC4)c3n2)CCC12CN(c1ccnc(C(F)(F)F)c1)C2` [Cmpd 1003], the EC50 (EC50 given as range classes) lay within 10 to 50 µM.
